Paper PMC3625590, “NBM-T-L-BMX-OS01, Semisynthesized from Osthole, Is a Novel Inhibitor of Histone Deacetylase and Enhances Learning and Memory in Rats” (Evidence-based Complementary and Alternative Medicine : eCAM, 2013)

Legend:
[1] = system: histone 4 lysine 12 acetylation (AcH4K12); assay: Western blot of histone 4 lysine 12 acetylation in brain tissue after behavioural tests; assay type: in vivo, Sprague-Dawley rats; details: 5 mg/kg/d i.p.
Procedure: The hippocampus tissue and primary hippocampal cells were lysed and sonicated in an RIPA buffer (50 mM Tris-HCl (pH 7.4), 150 mM NaCl, 2 mM EDTA, 1% IGEPAL CA-630, 1 mM phenylmethylsulfonyl fluoride (PMSF), 20 μg/mL pepstatin A, 20 μg/mL leupeptin, 20 μg/mL aprotinin, 50 mM NaF, and 1 mM Na3VO4). The protocol was performed as described previously. The lysate was resolved by 8% SDS-PAGE. The proteins resolved by SDS-PAGE were transferred to the PVDF membrane (Millipore, Bedford, MA, USA) and western blotting was conducted with the following antibodies: rabbit anti-acetyl histone 4 lysine 12 and mouse anti-histone 4 (Cell signaling, Danvers, MA, USA). The secondary antibodies used include the HRP-conjugated goat-anti-rabbit IgG antibody and HRP-conjugated goat-anti-mouse IgG antibody (Millipore). The membrane was developed by reacting with a chemiluminescent HRP substrate (Millipore) and exposure to X-ray film. The protein bands were quantified using the NIH Image J Software.

Sco-induced amnesia rats = assay: Water-maze learning, Sco-induced memory impairment; assay type: in vivo, Sprague-Dawley rats; details: Sco 1.5 mg/kg/d; BMX or SAHA 5 mg/kg/d i.p.
Procedure: SAHA was supplied by NatureWise Biotech and Medicals Corporation (Taipei, Taiwan). […] (St. Louis, MO, USA). The BMX and SAHA stock (100 mg/mL) was dissolved in DMSO and diluted with saline to a final concentration of 0.5 mg/mL (in 0.5% DMSO/saline). […] SD rats were randomly divided into 3 groups. For the naïve animal experiments, the BMX-injected or SAHA-injected groups were injected with BMX (5 mg/kg/d) or SAHA (5 mg/kg/d) intraperitoneally 7 d prior to behavioral experiments and during the experimentation. The control group received the 0.5% DMSO/saline injection. The injection volume was 10 μL/g of body weight. The injections were performed once per day. For the amnesia experiment, the protocol was adopted from previous studies with modifications. […] The control group received the 0.5% DMSO/saline injection. The injection volume was 10 μL/g of body weight. […] The method was adopted from that of a previous study with modifications. A plastic circular pool 2.0 m in diameter and 0.6 m in height was filled with water (25 ± 2°C) to a depth of 20 cm. A circular platform (8 cm in diameter) was placed at a specific location from the edge of the pool and submerged 2-3 cm below the water surface. Water was made cloudy by adding toxic-free dye. Distinctive visual cues were set on the wall. For spatial learning, animals were subjected to 3 trials per day, with one trial early in the morning, one trial at noon, and another in the late afternoon. The training procedure lasted 4 days, and a total of 12 trials were given. This procedure was adopted because spaced training is a better paradigm to facilitate memory consolidation. For these trials, the rats were positioned at different starting points spaced equally around the perimeter of the pool in random order. They had 120 s to find the hidden platform. If a rat could not find the platform, it was guided to the platform and was allowed to remain there for 20 s. The time each animal took to reach the platform was recorded as the escape latency. A probe trial of 120 s was given on day 5 to test their memory retention. The rats were placed in the pool with the platform removed, and the time they spent in each quadrant (Quadrants 1, 2, 3, and 4) was recorded. Quadrant 4 is the target quadrant. For the trained and swimming control experiments, rats in the trained group were subjected to the regular water maze learning procedure. At the end of the experiment, the rats were subjected to visible platform learning. For visible platform learning, a flag was mounted on the platform, and the platform was raised 2.5 cm above the surface of the water. In addition, the dye had not been added, so that the animals could see the location of the platform from the water. […]

Compound: O=C(CCCCCCC(=O)Nc1ccccc1)NO [SAHA, suberoylanilide hydroxamic acid, reference compound]
- H4K12 acetylation in amygdala ([1]; 7 days after footshock): showed the highest H4K12 acetylation
- H4K12 acetylation in hippocampus ([1]; after novel object recognition task): showed the highest H4K12 acetylation
- H4K12 acetylation in hippocampus ([1]; after water-maze experiment): showed the highest H4K12 acetylation
- escape latency in finding the hidden platform (Sco-induced amnesia rats): attenuates Sco-induced longer escape latency
- probe trial, time spent in target quadrant (Sco-induced amnesia rats): spent more time in the target quadrant
